Entries after “also recorded” stand apart in the source; their conditions may differ. Peptide text beside a SMILES is read from it.
Experiments:
[1] = test system: ALI in mice; details: variety of mouse models of ALI; cited from earlier work
[2] = test system: Prdx6; details: role: inhibitor; background statement; cited from earlier work
[3] = test system: pancreatic PLA2; details: role: inhibitor; background statement; cited from earlier work
[4] = discussion statement, no data shown; cited from earlier work
[5] = test system: LPS-induced sepsis in pigs; assay: Adverse effects in the LPS-induced ALI model in pigs / tolerability statements; parameters: species or system Yorkshire pigs (Sus scrofa domesticus); details: pig, in vivo; listed as PIP-2
Procedure: Prior to start of the experiment, the battery of systemic, cardiovascular, and pulmonary tests was carried out. These are called baseline measurements. Pigs were infused IV (zero time) with: Group 1, liposomes alone, no LPS (control, n=2); Group 2, LPS+liposomes (ALI untreated, n=6); and Group 3, LPS+PIP-2 in liposomes (ALI treated, n=12). Technical personnel responsible for animal care were “blinded” to the treatment conditions. LPS was given as an IV infusion of 50 ug/kg body weight over the first hour of the experiment. […] Either liposomes alone (Group 2) or PIP-2 in liposomes (Group 3) was infused as a “slow” bolus at the end of the LPS infusion. Liposomes were given at 2.22 mg/kg body weight. PIP-2 was given at 20 mg/kg body weight. Based on the measured encapsulation efficiency of ~15-20%, the IV administered PIP-2 was ~3-4 mg/kg body weight in liposomes and the remainder was in aqueous solution; presumably, the encapsulated PIP-2 was internalized by cells while the unencapsulated PIP-2 remained extracellular.

**Q.** What does the source list for `CCCCCCCCCCCCCCCCOCC(COCC(F)(F)F)OP(=O)(O)OC` (stereo not drawn) [MJ33]?
**A.** effect on lung injury in mouse ALI models (in words) [1]: can significantly ameliorate lung injury; also recorded: markedly protective effect against lung injury; inhibition of aiPLA2 / PLA2 activity of Prdx6 (in words) [2]: bind to Prdx6 preventing aiPLA2 activity; inhibition of other PLA2 enzymes (in words) [3]: inhibits various PLA2 enzymes such as pancreatic PLA2

**Q.** For `CC[C@H](C)[C@H](NC(=O)[C@H](CCC(N)=O)NC(=O)[C@H](Cc1c[nH]cn1)NC(=O)[C@H](CCCNC(=N)N)NC(=O)[C@H](Cc1ccccc1)NC(=O)[C@H](CC(=O)O)NC(=O)[C@H](Cc1c[nH]cn1)NC(=O)[C@@H](N)CC(C)C)C(=O)N[C@@H](CC(C)C)C(=O)O` [SEQ ID NO: 2] (H-LHDFRHQIL-OH), which “tissue half-life (in words)” value [4] is on record?
**A.** relatively favorable tissue half-life

**Q.** And the “adverse side-effects / toxicity (in words)” value [5]?
**A.** no evidence of adverse side-effects; also recorded: non-toxic

**Q.** With “SP-A: surfactant protein A (SP-A), 246 amino acids of human SP-A” as the compound, how does the “inhibition of aiPLA2 / PLA2 activity of Prdx6 (in words)” value [2] read?
**A.** bind to Prdx6 preventing aiPLA2 activity; also recorded: binds to Prdx6 and inhibits its aiPLA2 activity
